Experimental data published in patent US6545021B1, “Use of substituted-1,5-dideoxy-1,5-imino-D-glucitol compounds for treating hepatitis virus infections” (G.D. Searle & Co., priority 1999, dated 2003).

Key:
HBV = assay: Cell culture experiments with N-nonyl-DNJ: total HBV DNA and immune precipitated DNA; format: cell-based, hepatitis B virus
From the text: (§1) There are two measures of drug efficacy: reduction in total HBV DNA (measured by quantitative PCR), and reduction in HBV DNA from capsids with intact surface glycoproteins, which is the active form of the virus (measured by an ELISA-like immune precipitation assay followed by quantitative PCR).

[1] = test system: woodchuck hepatitis virus (WHV); assay: Woodchuck model, N-nonyl-DNJ monotherapy, BID oral dosing; format: in vivo
Protocol: Therefore, five groups of four animals each (all groups had both sexes, all but the control had two of each sex) were assigned to 0, 12.5, 25, 50, and 100 mg/kg/day with BID oral dosing. These were lab-reared wild animals. All animals were infected with woodchuck hepatitis virus (WHV) as neonates, and had been tested positive on serological tests for WHV surface antigen. Blood samples were drawn one week prior to dosing (−1 week), immediately before dosing (0 weeks), weekly during dosing (1, 2, 3, and 4 weeks), and after the end of dosing (5, 6, 8, and 10 weeks).
as §1
Before models are fitted to the data, a log transform was applied because: 1) the variation in IPDNA increases with increasing IPDNA values; the log transformation gives values with a nearly constant variation, and 2) it is expected that drug effects will appear as a constant multiplier of the IPDNA level. Because there are zero values of IPDNA, a small value (about ½ of the smallest non-zero value) was added to all values before the log transform.
Two approaches were used to model the changes in slope to week with dose of N-nonyl-DNJ: a linear modeling approach and a nonlinear model. Both approaches assume that the (linear) rate of change of the Log(IPDNA) measure over the dosing period is the “right” measure to reflect the effect of the drug on the virus. Both approaches are fit in stages, and the first stage is common to both approaches. First, a simple straight line regression model is fit using weeks 0-4 to predict log(IPDNA_+—10) separately for each animal by run combination. In the second stage, the response variable is the slope fitted in the first stage.
For the linear approach, a model is fit with slope to week as the response where run is considered a block, dose has a significant effect (almost all of this effect is due to a slope to dose), and the relevant error for testing the effect of dose is the variation among animals treated alike (after the adjustment for the runs as blocks). This is similar to using the calibration data within each run to first adjust each run's data to a common virus DNA concentration; the difference is that here the data from the woodchucks are used for the run adjustment rather than only the calibration data.
For the nonlinear approach, a four parameter logistic model is fit with the slope to week as the response and the dose as the predictor. Again, run is considered a block, but because no run has all weeks, it is not possible to fully reflect the blocking in the nonlinear approach. […] The average maximum slope observed was 2.71 additional Log(IPDNA g/mL)/week, or an increase of about 150%/week, the average minimum slope observed with N-nonyl-DNJ is 0.31 fewer Log(IPDNA g/mL)/week), or about a decrease of about 25%/week. The slopes, the fitted model, the parameter estimates from the model, and the approximate standard errors for these parameters are all shown in FIG. 3. […] Whether in woodchucks or humans, the effective dose of both the N-alkyl-DNJ and nucleoside or nucleotide antiviral agent administerd in combination therewith can be administerd in two equal daily subdoses (i.e., B.I.D.).

CCCCCCCCCN1C[C@H](O)[C@@H](O)[C@H](O)[C@H]1CO [N-nonyl-DNJ, N-(n-nonyl)-1,5-dideoxy-1,5-imino-D-glucitol]
effect on the immune precipitated DNA (IPDNA) (HBV): marked effect | effect on total HBV DNA (HBV): little or no effect | effect on total HBV DNA measurements ([1]; all dose levels, quantitative PCR): no effect | levels of IPDNA over the dosing period ([1]; high dose animals, weeks 0-4): decreasing levels of IPDNA | levels of IPDNA over the dosing period ([1]; low dose animals, weeks 0-4): increasing levels of IPDNA | average minimum slope observed ([1]; weeks 0-4): 0.31 fewer Log(IPDNA g/mL)/week | decrease of IPDNA per week at average minimum slope ([1]; weeks 0-4): about 25 %/week | approximate effective monotherapy dose ([1]; woodchucks): about 16 mg/kg/day
